Assay results: US6864217B2, “Herbicidal compositions with substituted phenylsulfonylureas for controlling weeds in rice” (Hoechst Schering AgrEvo GmbH, priority 1998, dated 2005)
Where a name gives a salt, the structure may show the parent alone.

How the values were obtained:
Oryza sativa [1] = test: Table 2 field trial, treatment at the 1-2 leaf stage rice: rice damage; settings: 28 days after application
Method: (§8) The examples mentioned below were carried out in the greenhouse, and in some instances, in field trials.

Oryza sativa [2] = test: Table 5 field trial, treatment at the 2-4 leaf stage rice: rice damage; format: in vivo; settings: evaluation after 28 days
Method: as §8

Cyperus iria = test: Table 23 field trial, treatment: 4-6 leaf stage: weed control; format: in vivo; settings: 36 days after application
Text: (§1) Field trial: Treatment: 4-6 leaf stage, evaluation 36 days after the application.

Echinochloa crusgalli [3] = test: Table 6 field trial, treatment at the 1-2 leaf stage: weed control; format: in vivo; settings: 2 g of ai/ha, 28 days after application
Method: as §8

Echinochloa crusgalli [4] = test: Table 9 greenhouse trial, treatment at the 1-2 leaf stage: weed control; format: in vivo; settings: 22 days after application
Method: (§2) Seeds or rhizome pieces of mono- and dicotyledonous weed plants are placed into sandy loam soil in plastic pots, covered with soil and grown in a greenhouse under good growth conditions (temperature, atmospheric humidity, water supply). Weeds which are encountered in the cultivation of rice are cultivated in pots in which the water level is up to 2 cm over the soil surface. Three weeks after sowing, the test plants are treated at the three-leaf stage. The active compound combinations according to the invention, formulated as wettable powders or emulsion concentrates, and, in parallel experiments, the correspondingly formulated individual active compounds are sprayed onto the green parts of the plants at different dosages using an amount of water of 300 to 600 l/ha (converted), and, after about 3 to 4 weeks of the test plants in the greenhouse under optimum growth conditions (temperature, atmospheric humidity, water supply), the effect of the preparations is evaluated visually in comparison to untreated controls. In the case of rice or weeds which are encountered in the cultivation of rice, the active compounds are also added directly to the water for irrigation (application analogous to the so-called granules application) or sprayed onto plants and added to the water for irrigation. The experiments were designed with several, up to five, repetitions. The herbicidal compositions according to the invention also have good herbicidal post-emergence activity against a broad spectrum of economically important weed grasses and broad-leaved weeds.
Greenhouse trial: Treatment at the 1-2 leaf stage, evaluation 22 days after the application.

Cyperus serotinus = test: Table 21 field trial, treatment at the 2 leaf stage: weed control; format: in vivo; settings: 2.5 g of ai/ha, 28 days after application
Text: (§3) Field trial: Treatment at the 2 leaf stage, evaluation 28 days after the application.

Oryza sativa [5] = test: Table 26 field trial, treatment at the 3 leaf stage: rice damage; format: in vivo; settings: 33 days after application
Text: (§4) Field trial: Treatment at the 3 leaf stage, evaluation 33 days after the application.

Marsilea crenata = test: Table 7 field trial, treatment at the 1-2 leaf stage: weed control; format: in vivo; settings: 2 g of ai/ha, 28 days after application
Method: as §8

Oryza sativa [6] = test: Table 24 field trial, treatment by the pre-emergence method: rice damage; format: in vivo; settings: field trial, pre-emergence method, 53 days after application
Text: Field trial: Treatment by the pre-emergence method, evaluation 53 days after the application.

Eleusine indica = test: Table 2 field trial, treatment at the 2-3 leaf stage weed grasses: weed control; format: in vivo; settings: 28 days after application
Method: as §8

Oryza sativa [7] = test: Table 23 field trial, treatment: 4-6 leaf stage: rice damage; format: in vivo; settings: 36 days after application
Text: as §1

Echinochloa crusgalli [8] = test: Table 5 field trial, treatment at the 2-4 leaf stage rice: weed control; format: in vivo; settings: evaluation after 28 days
Method: as §8

Polygonum convolvulus = test: Table 25 field trial, treatment at the 3 leaf stage: weed control; format: in vivo; settings: 33 days after application
Text: as §4

Echinochloa crusgalli [9] = test: Table 18 field trial, treatment at the 1-2 leaf stage: weed control; format: in vivo; settings: 14 days after application
Text: (§5) Field trial: Treatment at the 1-2 leaf stage, evaluation 14 days after the application.

Ipomoea hederacea = test: Table 20 field trial, treatment at the 4-6 leaf stage: weed control; format: in vivo; settings: 2.5 g of ai/ha, 28 days after application
Text: (§6) Field trial: Treatment at the 4-6 leaf stage, evaluation 28 days after the application.

Oryza sativa [10] = test: Table 21 field trial, treatment at the 2 leaf stage: rice damage; format: in vivo; settings: 2.5 g of ai/ha; field trial, 28 days after application
Text: as §3

Echinochloa crusgalli [11] = test: Table 17 field trial, treatment at the 2 leaf stage: weed control; format: in vivo; settings: 14 days after application
Text: Field trial: Treatment at the 2 leaf stage, evaluation 14 days after the application.

Oryza sativa [12] = test: Table 14 greenhouse trial, treatment at the 3-4 leaf stage: rice damage; format: in vivo; settings: 21 days after application
Method: as §2
Greenhouse trial: Treatment at the 3-4 leaf stage, evaluation 21 days after the application.

Oryza sativa [13] = test: Table 10 greenhouse trial, treatment at the 1-2 leaf stage: rice damage; format: in vivo; settings: in vivo
Method: as §2
(§7) Greenhouse trial: Treatment at the 1-2 leaf stage, evaluation 20 days after the application.

Oryza sativa [14] = test: Table 16 greenhouse trial, treatment at the 2-3 leaf stage: rice damage; format: in vivo; settings: 20 days after application
Method: as §2
Greenhouse trail: Treatment at the 2-3 leaf stage, evaluation 20 days after the application.

Oryza sativa [15] = test: Table 3 field trial, treatment at the 4-5 leaf stage (seed rice): rice damage; settings: 28 days after application
Method: as §8

ECHCO = test: Table 2 field trial, treatment at the 2-3 leaf stage weed grasses: weed control; format: in vivo, Echinochloa colona; settings: 28 days after application
Method: as §8

Oryza sativa [16] = test: Table 25 field trial, treatment at the 3 leaf stage: rice damage; format: in vivo; settings: 33 days after application
Text: as §4

Oryza sativa [17] = test: Table 18 field trial, treatment at the 1-2 leaf stage: rice damage; format: in vivo; settings: 14 days after application
Text: as §5

Oryza sativa [18] = test: Table 20 field trial, treatment at the 4-6 leaf stage: rice damage; format: in vivo; settings: 2.5 g of ai/ha, 28 days after application
Text: as §6

Scirpus juncoides = test: Table 10 greenhouse trial, treatment at the 1-2 leaf stage: weed control; format: in vivo; settings: 20 days after application
Method: as §2, §7

In the case of `COC(=O)c1ccc(I)cc1S(=O)(=O)NC(=O)Nc1nc(C)nc(OC)n1` [A1*), Sodium salt of methyl 4-iodo-2-[3-(4-methoxy-6-methyl-1,3,5-triazin-2-yl)ureidosulfonyl]benzoate], the ORYSW % damage (Oryza sativa [1]; 1.25 g of ai/ha) is reported as 10%, the ORYSW % damage (Oryza sativa [1]; 2.5 g of ai/ha) is reported as 25% and the ORYSW % damage (Oryza sativa [1]; 5 g of ai/ha) is reported as 25%. The ORYSW % damage (Oryza sativa [2]; 1.25 g of ai/ha) was 0%, the ORYSW % damage (Oryza sativa [2]; 2.5 g of ai/ha) was 0% and the ORYSW % damage (Oryza sativa [2]; 5 g of ai/ha) was 1%. It also gave a CYPIR % control (Cyperus iria; 0.62 g of ai/ha) of 53%, a CYPIR % control (Cyperus iria; 1.25 g of ai/ha) of 85% and a CYPIR % control (Cyperus iria; 2.5 g of ai/ha) of 98%. For the same compound, the ECHCG % control (Echinochloa crusgalli [3]) was 10%, the ECHCG % control (Echinochloa crusgalli [4]; 1.5 g of ai/ha) was 40% and the ECHCG % control (Echinochloa crusgalli [4]; 3 g of ai/ha) was 60%. The CYPSE % control (Cyperus serotinus) was 25%, the ORYSW % damage (Oryza sativa [5]; 2.5 g of ai/ha) was 0% and the ORYSW % damage (Oryza sativa [5]; 5 g of ai/ha) was 0%. The MASCR % control (Marsilea crenata) was 33%, the ORYSW % damage (Oryza sativa [6]; 2.5 g of ai/ha) was 0% and the ORYSW % damage (Oryza sativa [6]; 5 g of ai/ha) was 0%. It also gave an ELEIN % control (Eleusine indica; 1.25 g of ai/ha) of 0%, an ELEIN % control (Eleusine indica; 2.5 g of ai/ha) of 0% and an ELEIN % control (Eleusine indica; 5 g of ai/ha) of 0%. For the same compound, the ORYSW % damage (Oryza sativa [7]; 0.62 g of ai/ha) was 3%, the ORYSW % damage (Oryza sativa [7]; 1.25 g of ai/ha) was 8% and the ORYSW % damage (Oryza sativa [7]; 2.5 g of ai/ha) was 12%. For the same compound, the ECHCG % control (Echinochloa crusgalli [8]; 1.25 g of ai/ha) was 0%, the ECHCG % control (Echinochloa crusgalli [8]; 2.5 g of ai/ha) was 0% and the ECHCG % control (Echinochloa crusgalli [8]; 5 g of ai/ha) was 0%. The POLCO % control (Polygonum convolvulus; 1.25 g of ai/ha) was 35%, the POLCO % control (Polygonum convolvulus; 2.5 g of ai/ha) was 80% and the ECHCG % control (Echinochloa crusgalli [9]; 1 g of ai/ha) was 5%. The ECHCG % control (Echinochloa crusgalli [9]; 2 g of ai/ha) was 25%, the IPOHE % control (Ipomoea hederacea) was 30% and the ORYSW % damage (Oryza sativa [10]) was 8%. It also gave an ECHCG % control (Echinochloa crusgalli [11]; 1 g of ai/ha) of 5%, an ECHCG % control (Echinochloa crusgalli [11]; 2 g of ai/ha) of 25% and an ECHCG % control (Echinochloa crusgalli [11]; 4 g of ai/ha) of 45%. It also gave an ORYSW % damage (Oryza sativa [12]; 1.5 g of ai/ha) of 10%, an ORYSW % damage (Oryza sativa [12]; 3 g of ai/ha) of 10% and an ORYSW % damage (Oryza sativa [13]) of 10%. The ORYSW % damage (Oryza sativa [14]; 1.25 g of ai/ha) was 5%, the ORYSW % damage (Oryza sativa [14]; 2.5 g of ai/ha) was 10% and the ORYSW % damage (Oryza sativa [14]; 5 g of ai/ha) was 10%. For the same compound, the ORYSW % damage (Oryza sativa [15]; 0.75 g of ai/ha) was 0%, the ORYSW % damage (Oryza sativa [15]; 1.5 g of ai/ha) was 0% and the ORYSW % damage (Oryza sativa [15]; 2.5 g of ai/ha) was 0%. For the same compound, the ECHCO % control (ECHCO; 1.25 g of ai/ha) was 0%, the ECHCO % control (ECHCO; 2.5 g of ai/ha) was 35% and the ECHCO % control (ECHCO; 5 g of ai/ha) was 37%. It also gave an ORYSW % damage (Oryza sativa [16]; 1.25 g of ai/ha) of 6%, an ORYSW % damage (Oryza sativa [16]; 2.5 g of ai/ha) of 12% and an ORYSW % damage (Oryza sativa [17]; 1 g of ai/ha) of 7%. The ORYSW % damage (Oryza sativa [17]; 2 g of ai/ha) was 12%, the ORYSW % damage (Oryza sativa [18]) was 8% and the SCIJU % control (Scirpus juncoides; 1.5 g of ai/ha) was 40%. For the same compound, the SCIJU % control (Scirpus juncoides; 3 g of ai/ha) was 40%.
